Test [1] has as its system MDA-MB-231 human breast adenocarcinoma. As to the kind of experiment: MDA-MB-231 xenografts, primary tumour volume T/C. To be noted: 200 mg/kg po qd, ratio of average tumour volume treated/vehicle control, p<0.05. Format: in vivo. The procedure: (§1) All procedures involving animals were approved by the Animal Welfare and Ethical Review Body of the Institute of Cancer Research and Cancer Research UK Manchester Institute in accordance with National Home Office regulations under the Animals (Scientific Procedures) Act 1986 and according to the guidelines of the Committee of the National Cancer Research Institute Tumour size was determined by caliper measurements of tumour length, width and depth and volume was calculated as volume=0.5236×length×width×depth (mm).
MDA-MB-231 xenografts. Ncr nude female mice at 6 weeks old from Charles River were injected into the third upper nipple mammary fat pad with MDA-MB-231 Luc 4×10^6 in 100 ul PB (50:50 Matrigel). When tumours reach a mean of 80 mm^3 around 10 days post cell inoculation the animals are allocated in 4 groups of 8. LOX inhibitor treatment is then administrated by oral gavage dosing, at 0.2 ml/20 g bodyweight once daily for up to 28 consecutive days. Tumours and weights are measured twice weekly using calipers and the animals can be imaged using non invasive method by bioluminescence using IVIS 200 imaging machine, weekly using 150 mg/kg luciferin administrate intraperitoneal or subcutaneous. At the end of the study the animals are culled, and samples taken, fixed or snap frozen in liquid nitrogen. Frozen samples kept at −80 degree centigrade until being analyzed and the fixed samples stained according to desired marker.
(§2) For therapeutic efficacy assessment, the ratio of average tumour volume between compound treated and vehicle control treated (T/C) is calculated. Reduction in tumour volume in the compound treated group compared to vehicle-treated control group results in T/C<1. The efficacy of LOX inhibitors described in this invention, as measured by T/C in a pancreatic cancer model, a colorectal cancer model and a breast cancer model is shown in Table 2 and is significant (p<0.05) for all the data presented.

A further test deals with T1, LOX (Mus musculus, UniProt P28301).
T1 construct: Full length LOX cDNA was then PCR cloned into pEGFP-N1 (Clonetech), or biosensor vector proGFP2-N1; expressed in transfected cells; host or cells: MDCK cells grown as cysts on Matrigel, G418-selected
T1 sequence (P28301 163-411): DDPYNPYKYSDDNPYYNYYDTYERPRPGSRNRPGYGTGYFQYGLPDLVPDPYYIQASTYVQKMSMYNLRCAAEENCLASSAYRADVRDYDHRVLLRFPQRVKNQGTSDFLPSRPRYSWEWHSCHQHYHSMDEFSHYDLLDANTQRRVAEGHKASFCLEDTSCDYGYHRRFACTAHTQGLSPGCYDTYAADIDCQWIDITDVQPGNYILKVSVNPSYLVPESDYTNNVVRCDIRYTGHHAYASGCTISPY
The experiment in a line: LOX activity in cysts assay (LOX-roGFP2 biosensor, MDCK cysts). Format: cell-based. To be noted: MDCK cysts; for inhibition at 10 µM: inhibitor added 30 min prior to imaging, DMSO = 0%, BAPN 1 mM = 100% inhibition, read-out: LOX biosensor inhibition (cyst) @ 10 uM; for IC50: roGFP2 ratio at basal surface, read-out: LOX biosensor IC50 (cyst). The procedure: LOX Activity in Cysts Assay (Tang et al, 2017).
All cell lines used in this study were purchased from American Type Culture Collection (ATCC). Mycoplasma contamination was routinely monitored by PCR. Cells used were not found to be Mycoplasma positive. MDCK cell lines were cultured in Dulbecco's Modified Eagle Medium (DMEM) supplemented with 10% fetal bovine serum (FBS) and 1% Penicillin Streptomycin solution (Pen Strep). For GFP constructs transfection in MDCK cells, lipofectamine 3000 was used according to manufactures protocols. Cells were either selected with G418 (Life Technologies) at 5 mg/ml. All cell culture reagents were purchased from Life Technologies.
To produce MDCK cysts, cells were cultured on Matrigel (Corning) with 2% Matrigel supplemented in DMEM with 10% FBS. Cysts were allowed to form for 10 days before subsequent studies.
Mouse LOX cDNA was purchased from OriGene. Full length LOX cDNA was then PCR cloned into pEGFP-N1 (Clonetech), or biosensor vector proGFP2-N1 (Hanson, 2004) using the following primers, […] (forward primer) and […] (reverse primer). For the insertion into pEGFP-N1 or proGFP2-N1, NheI and XhoI restriction sites were added to forward and reverse primers accordingly. Mutant LOX constructs were made using QuickChange II site-directed mutagenesis kit (Agilent Technologies) following manufacture's protocol using LOX-GFP as template. To generate, roGFP2 versions of LOX mutant constructs, LOX mutant cDNA was transferred from pEGFP-N1 to proGFP2-N1 using NheI and XhoI.
All photomicrographs were taken with a Leica TCS SP8 X confocal system. For LOX biosensor imaging, live MDCK cysts were used. The oxidised biosensor was excited using a 405 nm laser, while the reduced biosensor was excited with a 488 nm laser. Emission of the biosensor was recorded at 500 nm˜530 nm range using sequential scans. Ratio images were generated following a published protocol {Kardash, 2011 #376}. Note, while the published protocol generates YFP/CFP ratio images, we used it to generate Oxidised/Reduced (roGFP2 ratio) ratio images. The roGFP2 ratio at the basal surface of MDCK cysts was used to indicate LOX inhibition. LOX inhibitors were added 30 min prior to imaging.
For clarity, readout for DMSO treated cysts represents 0% inhibition (no inhibition) and readout for BAPN at 1 mM is used as 100% inhibition (full inhibition).

Test [2] deals with MMTV-PyMT breast transgenic model primary tumour. The experiment in a line: MMTV-PyMT transgenic mouse breast cancer model, primary tumour T/C. Format: in vivo. The conditions noted are these: 200 mg/kg po qd; ratio of average tumour volume treated/vehicle control; p<0.05. The procedure:
as §1
(§3) MMTV-PyMT (Guy et al, 1992) (FVB) female mice were randomized by non-statistical methods to LOX inhibitor treatment groups from day 70 post-birth, when animals had no detectable tumour. Mice were treated daily by oral gavage with LOX inhibitor in vehicle, or daily vehicle (5% DMSO/2.5% Tween20 in water) by oral gavage. Tumour size was determined unblinded by caliper measurements of tumour length, width and depth and volume was calculated as 0.5236×length×width×depth (mm). In all experiments, mice were humanely killed and mammary tumours and lungs were collected when the primary tumours reached ethical limits or signs of ill health.
as §2

For test [3], the system named is MMTV-PyMT breast transgenic model lung metastases. As to the kind of experiment: MMTV-PyMT transgenic mouse breast cancer model, lung metastases quantification T/C. Format: in vivo. The conditions noted are these: 200 mg/kg po qd, treated/vehicle control, p<0.05. As to the method:
as §3
For lung metastases quantification, all mouse tissue samples were fixed in 10% formalin (Sigma) and embedded in paraffin. Samples were sectioned and hematoxylin and eosin (H&E) stained. Samples were imaged with a Leica CN400 slide scanner. Lung metastases were manually selected using Pen tool in ImageScope. Lung metastases number was counted and area was measured using ImageScope. The investigator was blinded to the experimental groups. The ratio of average metastases surface between compound treated and vehicle control treated (TIC) is calculated. The ratio of average metastases numbers between compound treated and vehicle control treated (T/C) is also calculated. Reduction in metastases area and/or in metastatses number in the compound treated group compared to vehicle-treated control group results in T/C<1. The antimetastatic efficacy of LOX inhibitors described in this invention, as measured by T/C in a model of breast cancer metastasising to lungs is shown in Table 2 and is significant (p<0.05) for all the data presented.

Test [4] concerns PDAC TRP53R172H (p53 mut) cells (mouse pancreatic carcinoma). As to the kind of experiment: PDAC allografts, primary tumour volume T/C. Format: in vivo. The conditions noted are these: 200 mg/kg po qd; ratio of average tumour volume treated/vehicle control; p<0.05. The procedure:
as §1
PDAC allografts: CD1 nu/nu female mice at 6 weeks of age were inoculated subcutaneously in the right flank with 2×10^6 PDAC TRP53R172H (p53 mut) cells at 100 ul suspension per animal. In some examples, the oral dosing by metal gavage commences one day after cells inoculation, at 0.2 ml/20 g bodyweight per animal once daily for 2-4 weeks, with compound dissolved in 5.25% tween20/saline or 5% DMSO/water. In other examples, groups of 7-8 mice were assigned to treatment following stratified allocation of tumour volumes with a median size of circa 100 mm^3. […] Control animals received a similar dosage of vehicle (5.25% tween20/saline). Tumours and weights are measured twice weekly using calipers. At the end of the study the animals are culled, and samples taken, fixed or snap frozen in liquid nitrogen. Frozen samples kept at −80 degree centigrade until being analysed and the fixed samples stained according to the desired marker.
as §2

The values below come from patent US12060360B2, “Lysyl oxidase inhibitors” (The Institute of Cancer Research: Royal Cancer Hospital, priority 2017, dated 2024).

Broadly, the inhibition is how much of the control response was suppressed. What is called IC50 is the concentration needed to halve the response being measured. `CC1(C)C[C@@H]2CN(C(=O)NCCO)C[C@H]1N(c1ccc(N3CCOCC3)cc1)C2` [Example 4, (1S,5S)—N-(2-hydroxyethyl)-9,9-dimethyl-6-(4-morpholinophenyl)-3,6-diazabicyclo[3.2.2]nonane-3-carboxamide]: the response vs control in vivo at 200 mg/kg in test [1] came out at 35%. Besides, at LOX, the inhibition at 10 µM was found to be 88% and the IC50 came out at 610 nM.
In the case of `CC1(C)C[C@@H]2CN(C(=O)NC3CCOCC3)C[C@H]1N(c1ccc(N3CCS(=O)(=O)CC3)cc1)C2` [Example 7, (1S,5S)-6-(4-(1,1-dioxidothiomorpholino)phenyl)-9,9-dimethyl-N-(tetrahydro-2H-pyran-4-yl)-3,6-diazabicyclo[3.2.2]nonane-3-carboxamide], the “T/C MMT-PyMT breast transgenic model - primary tumour” value in test [2] was 0.25. Further, the response vs control in vivo at 200 mg/kg in test [1] amounted to 34%. Also, at LOX, the inhibition at 10 µM was determined as 88% and the half-inhibitory concentration (IC50) stood at 540 nM.
In the case of `CC1(C)C[C@@H]2CN(C(=O)N3CCOCC3)C[C@H]1N(c1ccc(N3CCS(=O)(=O)CC3)cc1)C2` [Example 10, ((1S,5S)-6-(4-(1,1-dioxidothiomorpholino)phenyl)-9,9-dimethyl-3,6-diazabicyclo[3.2.2]nonan-3-yl)(morpholino)methanone], the “T/C MMT-PyMT breast transgenic model - primary tumour” value in test [2] amounted to 0.11. For the same compound, the “T/C MMT-PyMT breast transgenic model - metastases b) Area” value in test [3] (lung metastases area) is “b) 0.0006”. Also, the “T/C MMT-PyMT breast transgenic model - metastases a) Count” value in test [3] (lung metastases number) is listed as “a) 0.02”. Further, the response vs control in vivo at 200 mg/kg in test [1] was 39%. In addition, on LOX, the inhibition at 10 µM turned out to be 100% and the half-maximal inhibitory concentration (IC50) was less than 180 nM.
Regarding `CCOc1ccc(N2C[C@H]3CN(C(=O)NCCc4c[nH]cn4)C[C@@H]2C(C)(C)C3)cc1` [Example 26, (1S,5S)-N-(2-(1H-imidazol-4-yl)ethyl)-6-(4-ethoxyphenyl)-9,9-dimethyl-3,6-diazabicyclo[3.2.2]nonane-3-carboxamide], the “T/C PDAC R172H (p53 mut) (mouse pancreatic carcinoma) - primary tumour” value in test [4] is 0.46. The IC50 on LOX stood at 340 nM.
`COCCOc1ccc(N2C[C@H]3CN(C(=O)NCCO)C[C@@H]2C(C)(C)C3)cc1` [Example 27, (1S,5S)-N-(2-Hydroxyethyl)-6-(4-(2-methoxyethoxy)phenyl)-9,9-dimethyl-3,6-diazabicyclo[3.2.2]nonane-3-carboxamide]: the response vs control in vivo at 200 mg/kg in test [1] stood at 60%. For the same compound, on LOX, the inhibition at 10 µM amounted to 88% and the concentration for half-maximal inhibition (IC50) is 990 nM.
For `CC1(C)C[C@@H]2CN(CCCC#N)C[C@H]1N(c1ccc(N3CCS(=O)(=O)CC3)cc1)C2` [Example 39, 4-((1R,5S)-6-(4-(1,1-dioxidothiomorpholino)phenyl)-9,9-dimethyl-3,6-diazabicyclo[3.2.2]nonan-3-yl)butanenitrile] the same measures were 48%, 75% and 3180 nM.
For `CC1(C)C[C@@H]2CN(C(=O)CCC#N)C[C@H]1N(c1ccc(N3CCS(=O)(=O)CC3)cc1)C2` [Example 49, 4-((1 S,5S)-6-(4-(1,1-Dioxidothiomorpholino)phenyl)-9,9-dimethyl-3,6-diazabicyclo[3.2.2]nonan-3-yl)-4-oxobutanenitrile], the response vs control in vivo at 200 mg/kg in test [1] is 62%. For the same compound, the inhibition at 10 µM on LOX turned out to be 100%.
`CC1(C)C[C@@H]2CN(C(=O)N3CCS(=O)(=O)CC3)C[C@H]1N(c1ccc3c(c1)OCCO3)C2` [Example 63, ((1 S,5S)-6-(2,3-dihydrobenzo[b][1,4]dioxin-6-yl)-9,9-dimethyl-3,6-diazabicyclo[3.2.2]nonan-3-yl)(1,1-dioxidothiomorpholino)methanone]: the inhibition at 10 µM at LOX came to 100%.
Still for that read-out and setting: next, `CC1(C)C[C@@H]2CN(C(=O)N3CCS(=O)(=O)CC3)C[C@H]1N(c1cccc(N3CCS(=O)(=O)CC3)c1)C2` [Example 64, (1,1-dioxidothiomorpholino)((1S,5S)-6-(3-(1,1-dioxidothiomorpholino)phenyl)-9,9-dimethyl-3,6-diazabicyclo[3.2.2]nonan-3-yl)methanone]: 100%; `COc1cc(OC)cc(N2C[C@H]3CN(C(=O)N4CCS(=O)(=O)CC4)C[C@@H]2C(C)(C)C3)c1` [Example 65, ((1S,5S)-6-(3,5-dimethoxyphenyl)-9,9-dimethyl-3,6-diazabicyclo[3.2.2]nonan-3-yl)(1,1-dioxidothiomorpholino)methanone]: 88%.
